From ChEMBL document CHEMBL1909046, “DrugMatrix in vitro pharmacology data”

Columns and labels:
[1] = target: Voltage-gated inwardly rectifying potassium channel KCNH2 (Homo sapiens, UniProt Q12809); settings: hek293; note: in other assays of this panel Not Active means under 50% inhibition at 10 µM
Cytochrome P450 2D6 = Cytochrome P450 2D6 (Homo sapiens, UniProt P10635); settings: bti-tn-5b1-4; note: in other assays of this panel Not Active means under 50% inhibition at 10 µM
Endothelin-1 receptor = target: T1, Endothelin-1 receptor (Homo sapiens, UniProt P25101); assay type: cell membranes, CHO-K1, Membrane; settings: cho-k1; note: in other assays of this panel Not Active means under 50% inhibition at 10 µM
T1 sequence (P25101 whole entry): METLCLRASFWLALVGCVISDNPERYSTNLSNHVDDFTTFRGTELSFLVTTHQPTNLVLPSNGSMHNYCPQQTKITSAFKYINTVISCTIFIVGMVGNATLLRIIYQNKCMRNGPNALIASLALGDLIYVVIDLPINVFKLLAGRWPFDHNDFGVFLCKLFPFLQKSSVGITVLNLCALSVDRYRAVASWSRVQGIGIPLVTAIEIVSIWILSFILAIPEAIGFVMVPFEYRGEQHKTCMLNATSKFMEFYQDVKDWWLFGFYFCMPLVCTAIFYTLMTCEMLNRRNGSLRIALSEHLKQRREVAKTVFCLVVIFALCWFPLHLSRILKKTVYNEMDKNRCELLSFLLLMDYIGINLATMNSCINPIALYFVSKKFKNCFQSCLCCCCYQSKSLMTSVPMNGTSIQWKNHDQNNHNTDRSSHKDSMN

Insulin receptor = Insulin receptor (Rattus norvegicus, UniProt P15127); assay type: cell membranes, Wistar, Liver, Membrane; note: in other assays of this panel Not Active means under 50% inhibition at 10 µM
[2] = DRUGMATRIX: Glutamate, AMPA radioligand binding (ligand: [3H] AMPA); assay type: cell membranes, Rattus norvegicus, Wistar, Cerebral cortex, Membrane; settings: Not Active = under 50% inhibition at 10 µM
[3] = DRUGMATRIX: Leukotriene, BLT (LTB4) radioligand binding (ligand: [3H]LTB4); assay type: cell membranes, Membrane; settings: u-937; Not Active = under 50% inhibition at 10 µM
[4] = DRUGMATRIX: beta-Lactamase enzyme inhibition (substrate: Nitrocefin); set-up: species or system Bacillus cereus; settings: Not Active = under 50% inhibition at 10 µM
Caspase-1 = target: T2, Caspase-1 (Homo sapiens, UniProt P29466); set-up: species or system Escherichia coli
T2 sequence (P29466 whole entry): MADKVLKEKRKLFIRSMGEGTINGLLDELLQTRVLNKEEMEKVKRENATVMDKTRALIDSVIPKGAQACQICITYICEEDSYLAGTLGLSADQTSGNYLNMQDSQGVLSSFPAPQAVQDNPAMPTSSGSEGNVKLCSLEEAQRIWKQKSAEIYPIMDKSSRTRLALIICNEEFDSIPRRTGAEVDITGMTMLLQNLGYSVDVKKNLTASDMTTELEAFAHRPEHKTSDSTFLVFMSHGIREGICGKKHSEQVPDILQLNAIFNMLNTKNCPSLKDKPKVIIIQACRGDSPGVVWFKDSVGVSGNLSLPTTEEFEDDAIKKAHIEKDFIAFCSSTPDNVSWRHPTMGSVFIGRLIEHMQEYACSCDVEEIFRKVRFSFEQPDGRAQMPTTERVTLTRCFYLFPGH

[5] = DRUGMATRIX: Interleukin IL-1 radioligand binding (ligand: [125I] interleukin 1beta); assay type: cell membranes, Membrane; settings: nih3t3; Not Active = under 50% inhibition at 10 µM

Sequence of Cytochrome P450 2D6 (P10635 whole entry): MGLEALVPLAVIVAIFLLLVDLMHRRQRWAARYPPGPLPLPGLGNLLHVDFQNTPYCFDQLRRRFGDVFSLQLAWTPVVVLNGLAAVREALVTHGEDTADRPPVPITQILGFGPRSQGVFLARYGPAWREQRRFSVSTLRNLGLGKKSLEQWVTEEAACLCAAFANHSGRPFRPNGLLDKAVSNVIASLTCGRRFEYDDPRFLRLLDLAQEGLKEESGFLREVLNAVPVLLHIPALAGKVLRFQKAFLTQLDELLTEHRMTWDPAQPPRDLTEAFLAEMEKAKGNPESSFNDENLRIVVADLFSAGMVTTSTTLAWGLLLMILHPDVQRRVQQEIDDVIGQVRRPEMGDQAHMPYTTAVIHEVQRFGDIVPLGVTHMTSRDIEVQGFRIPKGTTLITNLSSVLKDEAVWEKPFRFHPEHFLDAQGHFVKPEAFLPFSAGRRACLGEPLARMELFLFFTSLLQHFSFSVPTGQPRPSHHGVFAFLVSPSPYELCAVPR
Sequence of Insulin receptor (P15127 27-759 limits assumed): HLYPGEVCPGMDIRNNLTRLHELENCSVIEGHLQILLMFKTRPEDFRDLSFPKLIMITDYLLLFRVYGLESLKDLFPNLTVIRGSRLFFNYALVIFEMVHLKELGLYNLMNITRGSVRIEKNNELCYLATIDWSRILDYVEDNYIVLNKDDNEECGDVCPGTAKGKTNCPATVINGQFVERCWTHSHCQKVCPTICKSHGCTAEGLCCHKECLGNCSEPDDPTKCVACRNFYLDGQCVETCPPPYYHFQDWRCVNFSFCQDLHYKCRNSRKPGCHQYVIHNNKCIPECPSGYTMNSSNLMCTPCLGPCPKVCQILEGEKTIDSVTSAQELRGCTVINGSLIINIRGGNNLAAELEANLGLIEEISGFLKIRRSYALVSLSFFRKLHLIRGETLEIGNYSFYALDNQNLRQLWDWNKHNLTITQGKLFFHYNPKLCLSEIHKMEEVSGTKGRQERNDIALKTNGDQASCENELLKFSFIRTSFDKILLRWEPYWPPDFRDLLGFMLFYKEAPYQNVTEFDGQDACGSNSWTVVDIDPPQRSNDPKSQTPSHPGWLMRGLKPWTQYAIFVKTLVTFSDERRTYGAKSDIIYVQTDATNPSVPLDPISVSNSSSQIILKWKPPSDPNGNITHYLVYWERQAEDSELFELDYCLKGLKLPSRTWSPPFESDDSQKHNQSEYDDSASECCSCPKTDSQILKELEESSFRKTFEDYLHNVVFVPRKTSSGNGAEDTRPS
Sequence of Insulin receptor (P15127 764-1383 limits assumed): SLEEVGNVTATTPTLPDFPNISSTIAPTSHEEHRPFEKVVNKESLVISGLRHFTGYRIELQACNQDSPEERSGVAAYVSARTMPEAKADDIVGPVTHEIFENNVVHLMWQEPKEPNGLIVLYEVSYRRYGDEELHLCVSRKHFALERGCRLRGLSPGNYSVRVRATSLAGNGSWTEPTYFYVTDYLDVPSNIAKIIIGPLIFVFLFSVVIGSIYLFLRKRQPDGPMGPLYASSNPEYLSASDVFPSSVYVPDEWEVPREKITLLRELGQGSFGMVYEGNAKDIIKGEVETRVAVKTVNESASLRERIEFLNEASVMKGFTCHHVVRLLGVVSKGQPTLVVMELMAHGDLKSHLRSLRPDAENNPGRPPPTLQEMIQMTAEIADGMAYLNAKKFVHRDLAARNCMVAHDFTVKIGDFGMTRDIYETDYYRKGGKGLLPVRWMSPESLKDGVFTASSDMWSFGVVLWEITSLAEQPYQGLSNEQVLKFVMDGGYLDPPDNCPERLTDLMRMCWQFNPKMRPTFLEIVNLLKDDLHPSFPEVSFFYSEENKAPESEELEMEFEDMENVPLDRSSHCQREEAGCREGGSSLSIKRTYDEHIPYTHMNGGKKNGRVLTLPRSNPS
Sequence of Voltage-gated inwardly rectifying potassium channel KCNH2 (Q12809 whole entry): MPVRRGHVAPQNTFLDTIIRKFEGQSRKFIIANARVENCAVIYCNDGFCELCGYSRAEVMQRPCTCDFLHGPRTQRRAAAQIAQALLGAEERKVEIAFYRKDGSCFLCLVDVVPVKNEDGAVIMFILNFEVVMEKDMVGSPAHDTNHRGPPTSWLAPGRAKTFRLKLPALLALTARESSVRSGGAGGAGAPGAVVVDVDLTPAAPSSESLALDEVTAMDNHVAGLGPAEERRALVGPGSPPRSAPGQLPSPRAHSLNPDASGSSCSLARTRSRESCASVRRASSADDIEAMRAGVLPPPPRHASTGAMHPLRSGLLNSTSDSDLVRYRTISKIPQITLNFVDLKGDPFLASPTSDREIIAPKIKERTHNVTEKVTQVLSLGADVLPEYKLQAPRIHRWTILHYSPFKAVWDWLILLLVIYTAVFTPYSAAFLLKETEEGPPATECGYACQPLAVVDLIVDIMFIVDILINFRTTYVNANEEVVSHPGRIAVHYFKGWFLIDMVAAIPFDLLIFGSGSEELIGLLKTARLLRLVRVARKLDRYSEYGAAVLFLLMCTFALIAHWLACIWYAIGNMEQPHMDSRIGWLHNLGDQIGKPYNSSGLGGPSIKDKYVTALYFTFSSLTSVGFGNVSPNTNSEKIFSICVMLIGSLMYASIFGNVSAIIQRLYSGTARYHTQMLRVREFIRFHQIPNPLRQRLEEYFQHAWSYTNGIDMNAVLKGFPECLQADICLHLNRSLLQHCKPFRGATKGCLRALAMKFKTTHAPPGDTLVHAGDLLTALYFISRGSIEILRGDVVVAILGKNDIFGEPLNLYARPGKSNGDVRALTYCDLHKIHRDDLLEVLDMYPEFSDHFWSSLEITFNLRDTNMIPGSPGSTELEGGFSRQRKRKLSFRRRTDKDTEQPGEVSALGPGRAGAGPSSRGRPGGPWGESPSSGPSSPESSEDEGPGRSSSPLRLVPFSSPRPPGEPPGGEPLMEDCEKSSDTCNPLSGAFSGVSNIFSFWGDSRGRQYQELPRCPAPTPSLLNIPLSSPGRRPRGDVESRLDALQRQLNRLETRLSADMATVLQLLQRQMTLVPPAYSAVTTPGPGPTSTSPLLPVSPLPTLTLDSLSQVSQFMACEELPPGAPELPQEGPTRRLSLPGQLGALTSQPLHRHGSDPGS

| Compound | IC50 [1] | Ki [1] | IC50 (Cytochrome P450 2D6) | Ki (Cytochrome P450 2D6) | IC50 (Endothelin-1 receptor) | IC50 (Insulin receptor) | IC50 [2] | Ki [2] | IC50 [3] | Ki [3] | IC50 [4] | Ki [4] | IC50 (Caspase-1) | IC50 [5] | Ki [5] | Ki (Endothelin-1 receptor) | Ki (Insulin receptor) | Ki (Caspase-1) |
| --- | --- | --- | --- | --- | --- | --- | --- | --- | --- | --- | --- | --- | --- | --- | --- | --- | --- | --- |
| C#CCN(C)[C@H](C)Cc1ccccc1 [SELEGILINE] | Not Active | Not Active | Not Active | Not Active | Not Active | Not Active | Not Active | Not Active | Not Active | Not Active | Not Active | Not Active | Not Active | Not Active | Not Active | – | – | – |
| CO[C@H]1C[C@@H]2CC[C@@H](C)[C@@](O)(O2)C(=O)C(=O)N2CCCC[C@H]2C(=O)O[C@H]([C@H](C)C[C@@H]2CC[C@@H](O)[C@H](OC)C2)CC(=O)[C@H](C)/C=C(\C)[C@@H](O)[C@@H](OC)C(=O)[C@H](C)C[C@H](C)/C=C/C=C/C=C/1C [SIROLIMUS] | Not Active | Not Active | Not Active | Not Active | Not Active | Not Active | Not Active | Not Active | Not Active | Not Active | Not Active | Not Active | Not Active | Not Active | Not Active | – | – | – |
| CN[C@@H]1[C@H](O)[C@H](NC)[C@H]2O[C@@]3(O)C(=O)C[C@@H](C)O[C@H]3O[C@@H]2[C@H]1O [SPECTINOMYCIN] | Not Active | Not Active | Not Active | Not Active | Not Active | Not Active | Not Active | Not Active | Not Active | Not Active | Not Active | Not Active | Not Active | Not Active | Not Active | – | – | – |
| Nc1ccc(S(=O)(=O)Nc2ncccn2)cc1 [SULFADIAZINE] | Not Active | Not Active | Not Active | Not Active | Not Active | Not Active | Not Active | Not Active | Not Active | Not Active | Not Active | Not Active | Not Active | Not Active | Not Active | – | – | – |
| COc1ncnc(NS(=O)(=O)c2ccc(N)cc2)c1OC [SULFADOXINE] | Not Active | Not Active | Not Active | Not Active | Not Active | Not Active | Not Active | Not Active | Not Active | Not Active | Not Active | Not Active | Not Active | Not Active | Not Active | – | – | – |
| Nc1ccc(S(=O)(=O)Nc2nccs2)cc1 [SULFATHIAZOLE] | Not Active | Not Active | Not Active | Not Active | Not Active | Not Active | Not Active | Not Active | Not Active | Not Active | Not Active | Not Active | Not Active | Not Active | Not Active | – | – | – |
| CC(C)(C)NC[C@H](O)COc1nsnc1N1CCOCC1 [TIMOLOL] | Not Active | Not Active | Not Active | Not Active | Not Active | Not Active | Not Active | Not Active | Not Active | Not Active | Not Active | Not Active | Not Active | Not Active | Not Active | – | – | – |
| C[C@@H]1C[C@H]2[C@@H]3CCC4=CC(=O)C=C[C@]4(C)C3=CC[C@]2(C)[C@H]1C(=O)CN1CCN(c2cc(N3CCCC3)nc(N3CCCC3)n2)CC1 [TIRILAZAD] | Not Active | Not Active | Not Active | Not Active | Not Active | Not Active | Not Active | Not Active | Not Active | Not Active | Not Active | Not Active | Not Active | Not Active | Not Active | – | – | – |
| NC[C@H]1O[C@H](O[C@H]2[C@H](O)[C@@H](O[C@H]3O[C@H](CO)[C@@H](O)[C@H](N)[C@H]3O)[C@H](N)C[C@@H]2N)[C@H](N)C[C@@H]1O [TOBRAMYCIN] | Not Active | Not Active | Not Active | Not Active | Not Active | Not Active | Not Active | Not Active | Not Active | Not Active | Not Active | Not Active | Not Active | Not Active | Not Active | – | – | – |
| O=C(O)C(Cl)(Cl)Cl [TRICHLOROACETIC ACID] | Not Active | Not Active | Not Active | Not Active | Not Active | Not Active | Not Active | Not Active | Not Active | Not Active | Not Active | Not Active | Not Active | Not Active | Not Active | – | – | – |
| CC(=O)O[C@H]1C[C@@H]2CC[C@@H]3[C@H](CC[C@@]4(C)[C@H]3C[C@H]([N+]3(C)CCCCC3)[C@@H]4OC(C)=O)[C@@]2(C)C[C@@H]1N1CCCCC1.[Br-] [VECURONIUM BROMIDE] | Not Active | Not Active | Not Active | Not Active | Not Active | Not Active | Not Active | Not Active | Not Active | Not Active | Not Active | Not Active | Not Active | Not Active | Not Active | – | – | – |
| COc1cc(C(=O)NS(=O)(=O)c2ccccc2C)ccc1Cc1cn(C)c2ccc(NC(=O)OC3CCCC3)cc12 [ZAFIRLUKAST] | Not Active | Not Active | Not Active | Not Active | Not Active | Not Active | Not Active | Not Active | Not Active | Not Active | Not Active | Not Active | Not Active | Not Active | Not Active | – | – | – |
| Cc1cn([C@H]2C[C@H](N=[N+]=[N-])[C@@H](CO)O2)c(=O)[nH]c1=O [ZIDOVUDINE] | Not Active | Not Active | Not Active | Not Active | Not Active | Not Active | Not Active | Not Active | Not Active | Not Active | Not Active | Not Active | Not Active | Not Active | Not Active | – | – | – |
| STANNOUS FLUORIDE | Not Active | Not Active | Not Active | Not Active | Not Active | Not Active | Not Active | Not Active | Not Active | Not Active | Not Active | Not Active | Not Active | Not Active | Not Active | Not Active | Not Active | Not Active |
| THIMEROSAL | Not Active | Not Active | 3000 nM | – | Not Active | Not Active | Not Active | Not Active | Not Active | Not Active | Not Active | Not Active | Not Active | Not Active | Not Active | Not Active | Not Active | Not Active |
